In ChEMBL document CHEMBL1201862, “PubChem BioAssay data set” (2004):
Values joined by “and” are separate entries in the source; they are usually repeats but may differ in a detail not shown here. Identical values can stand only once.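 Results reflect a 48-hour exposure of cells in 96-well plates to compound at five concentrations. GI50 marks 50% less growth.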 Active and inactive are the calls of the source. No stated cut-off is given here; in the data, active = GI50 up to about 1.1 µM and inactive = higher. Non-standard residues stand in square brackets, D forms with d. Residues, ends and D or L forms follow the SMILES beside them. ξ: configuration not given here. *: point of attachment. ξF = NC(Cc1ccccc1)C(=O)O; Cbz = O=C(OCc1ccccc1)*; Aib = CC(C)(N)C(=O)O

Experiments:
Test in all cases: inhibition of tumour cell growth, NCI panel, 48 h
RXF 393 = test system: RXF 393
HCT-15 = test system: HCT-15
A549 = test system: A549
SW-620 = test system: SW-620
HCT-116 = test system: HCT-116
MOLT-4 = test system: MOLT-4
Malme-3M = test system: Malme-3M
SK-OV-3 = test system: SK-OV-3
SK-MEL-5 = test system: SK-MEL-5
SF-539 = test system: SF-539
NCI-H522 = test system: NCI-H522
UACC-62 = test system: UACC-62
K562 = test system: K562
SN12C = test system: SN12C
OVCAR-5 = test system: OVCAR-5
U-251 = test system: U-251
IGROV-1 = test system: IGROV-1
M14 = test system: M14
TK-10 = test system: TK-10
HOP-62 = test system: HOP-62

Compound | GI50 (RXF 393) | GI50 (HCT-15) [µM] | GI50 (A549) | GI50 (SW-620) | GI50 (HCT-116) | GI50 (MOLT-4) | GI50 (Malme-3M) | GI50 (SK-OV-3) | GI50 (SK-MEL-5) | GI50 (SF-539) | GI50 (NCI-H522) | GI50 (UACC-62) | GI50 (K562) | GI50 (SN12C) | GI50 (OVCAR-5) | GI50 (U-251) | GI50 (IGROV-1) | GI50 (M14) | GI50 (TK-10) | GI50 (HOP-62)
Nc1ccn(C2OC(COP(=O)(O)Oc3ccccc3)C(O)C2O)c(=O)n1 (stereo unspecified) | > 45.8 µM (inactive) | > 60 | 3.73 µM (inactive) | > 100 µM (inactive) | 5.57 µM (inactive) | 0.979 µM (active) | > 35.3 µM (inactive) | > 100 µM (inactive) | > 42.9 µM (inactive) | 93.3 µM (inactive) | 16.6 µM (inactive) | 56.5 µM (inactive) | > 70.6 µM (inactive) | 12.7 µM (inactive) | > 100 µM (inactive) | 44.6 µM (inactive) | > 56.5 µM (inactive) | – | – | –
C=CCCCC12CCCc3cccc(c31)NC2=O (stereo unspecified) | 17.6 µM (inactive) | – | 20.2 µM (inactive) | 20 µM (inactive) | 13.6 µM (inactive) | 18.8 µM (inactive) | 15.6 µM (inactive) | 19.7 µM (inactive) | 16.3 µM (inactive) | 19.6 µM (inactive) | 16.9 µM (inactive) | 16.8 µM (inactive) | 22 µM (inactive) | 32.4 µM (inactive) | 19.3 µM (inactive) | 22 µM (inactive) | 17.1 µM (inactive) | 14.4 µM (inactive) | 19.6 µM (inactive) | 34 µM (inactive)
CCOC(=O)CNC(=O)C(Cc1ccccc1)NC(=O)C(C)(C)NC(=O)OCc1ccccc1 (stereo unspecified) (Cbz-[Aib]-[ξF]-Gly-OEt) | – | > 100 | > 100 µM (inactive) | > 100 µM (inactive) | > 100 µM (inactive) | 29.4 µM (inactive) | 18.6 µM (inactive) | – | 64.1 µM (inactive) | – | 29.8 µM (inactive) | 19.6 µM (inactive) | 33.1 µM (inactive) | – | > 100 µM (inactive) | > 100 µM (inactive) | > 100 µM (inactive) | 37.7 µM (inactive) | > 100 µM (inactive) | > 100 µM (inactive)
CCN(CC)CCn1c(=O)c2c(C)c3oc4ccccc4oc3c(C)c2c1=O | > 100 µM (inactive) | > 100 | > 100 µM (inactive) | > 100 µM (inactive) | > 100 µM (inactive) | > 100 µM (inactive) | > 100 µM (inactive) | > 100 µM (inactive) | > 100 µM (inactive) | > 100 µM (inactive) | > 100 µM (inactive) | > 100 µM (inactive) | > 100 µM (inactive) | > 100 µM (inactive) | > 100 µM (inactive) | > 100 µM (inactive) | > 100 µM (inactive) | > 100 µM (inactive) | > 100 µM (inactive) | > 100 µM (inactive)
C/C(CCOC1CCCCO1)=C(\C)[Si](C)(C)C (stereo unspecified) | – | > 100 | > 100 µM (inactive) | > 100 µM (inactive) | > 100 µM (inactive) | 72.8 µM (inactive) | > 100 µM (inactive) | > 10 µM (inactive) | > 100 µM (inactive) | > 100 µM (inactive) | > 100 µM (inactive) | > 100 µM (inactive) | > 100 µM (inactive) | > 100 µM (inactive) | > 100 µM (inactive) | > 100 µM (inactive) | > 100 µM (inactive) | > 100 µM (inactive) | > 100 µM (inactive) | –
O=C(Nc1nnc(S)[nH]1)C(=O)C(c1cnc2ccc([N+](=O)[O-])cc2n1)[N+](=O)[O-] (stereo unspecified) | > 100 µM (inactive) | 72.9 | > 100 µM (inactive) | > 100 µM (inactive) | > 100 µM (inactive) | > 100 µM (inactive) | > 100 µM (inactive) | > 100 µM (inactive) | > 100 µM (inactive) | > 100 µM (inactive) | 16.2 µM (inactive) | > 100 µM (inactive) | > 100 µM (inactive) | > 100 µM (inactive) | > 100 µM (inactive) | > 100 µM (inactive) | > 100 µM (inactive) | > 100 µM (inactive) | > 100 µM (inactive) | > 100 µM (inactive)
COc1ccc(N2C(=O)C(=O)N(C)C2=O)c2ccccc12 | > 10 µM (inactive) | > 10 | > 10 µM (inactive) | > 10 µM (inactive) | > 10 µM (inactive) | > 10 µM (inactive) | > 10 µM (inactive) | > 10 µM (inactive) | > 10 µM (inactive) | > 10 µM (inactive) | > 10 µM (inactive) | > 10 µM (inactive) | > 10 µM (inactive) | > 10 µM (inactive) | > 10 µM (inactive) | > 10 µM (inactive) | > 10 µM (inactive) | > 10 µM (inactive) | > 10 µM (inactive) | > 10 µM (inactive)
c1cc(CNC2C3CCC(C3)C2c2c[nH]c3ccccc23)cc(CNC2C3CCC(C3)C2c2c[nH]c3ccccc23)c1 (stereo unspecified) | 1.22 µM (inactive) and 1.31 µM (inactive) | – | 600 nM (active) and 773 nM (active) | – | – | – | 1.87 µM (inactive) and 1.77 µM (inactive) | 1.85 µM (inactive) and 1.8 µM (inactive) | 1.85 µM (inactive) and 1.91 µM (inactive) | – | 1.12 µM (active) and 1.36 µM (inactive) | 1.81 µM (inactive) and 1.74 µM (inactive) | 155 nM (active) and 203 nM (active) | – | 1.84 µM (inactive) and 1.82 µM (inactive) | 619 nM (active) and 615 nM (active) | 1.35 µM (inactive) and 1.59 µM (inactive) | 667 nM (active) and 638 nM (active) | 1.73 µM (inactive) and 1.94 µM (inactive) | 1.85 µM (inactive) and 1.77 µM (inactive)
CC1(C)Cc2nnsc2C2=C1C(=O)CCS2 | > 100 µM (inactive) | > 100 | > 100 µM (inactive) | > 100 µM (inactive) | – | > 100 µM (inactive) | > 100 µM (inactive) | > 100 µM (inactive) | > 100 µM (inactive) | > 100 µM (inactive) | > 100 µM (inactive) | > 100 µM (inactive) | > 100 µM (inactive) | > 100 µM (inactive) | > 100 µM (inactive) | 60.4 µM (inactive) | > 100 µM (inactive) | > 100 µM (inactive) | > 100 µM (inactive) | > 100 µM (inactive)
O=c1sc2ccccc2n1CC1CS1 (stereo unspecified) | > 100 µM (inactive) | > 100 | > 100 µM (inactive) | > 100 µM (inactive) | > 100 µM (inactive) | > 100 µM (inactive) | > 100 µM (inactive) | > 100 µM (inactive) | – | > 100 µM (inactive) | > 100 µM (inactive) | > 100 µM (inactive) | > 100 µM (inactive) | > 100 µM (inactive) | > 100 µM (inactive) | – | > 100 µM (inactive) | > 100 µM (inactive) | > 100 µM (inactive) | > 100 µM (inactive)
C[n+]1cccc2c(=O)c3ccccc3oc21 | > 100 µM (inactive) | > 100 | > 100 µM (inactive) | > 100 µM (inactive) | > 100 µM (inactive) | – | > 100 µM (inactive) | > 100 µM (inactive) | > 100 µM (inactive) | > 100 µM (inactive) | > 100 µM (inactive) | > 100 µM (inactive) | > 100 µM (inactive) | > 100 µM (inactive) | > 100 µM (inactive) | > 100 µM (inactive) | > 100 µM (inactive) | > 100 µM (inactive) | > 100 µM (inactive) | > 100 µM (inactive)
COc1ccc(-n2cnnc2-c2nsc3ccccc23)cc1 | 12.4 µM (inactive) | 51.6 | > 100 µM (inactive) | > 100 µM (inactive) | > 100 µM (inactive) | > 100 µM (inactive) | – | – | > 100 µM (inactive) | 23.4 µM (inactive) | – | > 100 µM (inactive) | 90.6 µM (inactive) | 99.8 µM (inactive) | > 100 µM (inactive) | > 100 µM (inactive) | > 100 µM (inactive) | > 100 µM (inactive) | > 100 µM (inactive) | 94.8 µM (inactive)
O=c1[nH]c(=S)[nH]c2c(C3OC(CO)C(O)C3O)nsc12 (stereo unspecified) | > 100 µM (inactive) | > 100 | > 100 µM (inactive) | > 100 µM (inactive) | > 100 µM (inactive) | > 100 µM (inactive) | > 100 µM (inactive) | > 100 µM (inactive) | > 100 µM (inactive) | > 100 µM (inactive) | – | > 100 µM (inactive) | > 100 µM (inactive) | > 100 µM (inactive) | > 100 µM (inactive) | > 100 µM (inactive) | > 100 µM (inactive) | > 100 µM (inactive) | > 100 µM (inactive) | > 100 µM (inactive)
COc1ccc(N2C(=O)C(=O)C3(CCCCC3)C2=O)c2ccccc12 | > 10 µM (inactive) | > 10 | > 10 µM (inactive) | > 10 µM (inactive) | > 10 µM (inactive) | > 10 µM (inactive) | > 10 µM (inactive) | > 10 µM (inactive) | > 10 µM (inactive) | > 10 µM (inactive) | > 10 µM (inactive) | > 10 µM (inactive) | > 10 µM (inactive) | > 10 µM (inactive) | > 10 µM (inactive) | > 10 µM (inactive) | > 10 µM (inactive) | > 10 µM (inactive) | > 10 µM (inactive) | > 10 µM (inactive)
